# Laboratory results from patent US20250179040A1, “HISTAMINE H3 RECEPTOR ANTAGONISTS AND THEIR PHARMACEUTICAL USES” (HANGZHOU BIO-SINCERITY PHARMA-TECH CO., LTD., priority 2022, published 2025).
# Assays:
# histamine H3 receptor = histamine H3 receptor (Homo sapiens, UniProt Q9Y5N1); experiment: FLPPR assay, antagonistic activity on histamine H3 receptor; assay type: cell-based; details: for inhibition at 0.005 µM: read-out: % Inh-AVERAGE @ 5 nM; for inhibition at 0.05 µM: read-out: % Inh-AVERAGE @ 50 nM
# Chain of histamine H3 receptor (Q9Y5N1 whole entry, species assumed): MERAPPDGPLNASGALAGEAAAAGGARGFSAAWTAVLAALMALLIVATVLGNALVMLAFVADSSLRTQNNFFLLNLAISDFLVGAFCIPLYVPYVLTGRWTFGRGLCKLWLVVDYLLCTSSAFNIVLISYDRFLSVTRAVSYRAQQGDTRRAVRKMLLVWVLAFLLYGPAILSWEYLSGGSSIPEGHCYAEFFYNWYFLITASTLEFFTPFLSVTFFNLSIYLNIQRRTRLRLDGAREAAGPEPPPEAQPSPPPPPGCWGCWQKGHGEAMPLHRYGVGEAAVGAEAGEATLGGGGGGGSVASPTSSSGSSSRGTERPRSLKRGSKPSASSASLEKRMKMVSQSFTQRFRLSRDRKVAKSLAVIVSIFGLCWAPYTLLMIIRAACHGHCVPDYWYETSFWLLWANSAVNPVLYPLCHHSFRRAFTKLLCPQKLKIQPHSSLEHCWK
# Procedure: The FLPPR assay (NIH Assay Guidance Manual: HTS Assay Validation-Section 4.3. Analysis (Potency), htpps://www.ncbi.nlm.nih.gov/books/NBK83783) was performed using SUVN-G3031 as a positive control, and 21 target compounds were tested for the antagonistic activity target to histamine H3 receptor.
# hERG channel = hERG channel (Homo sapiens, UniProt Q12809); experiment: in vitro; details: Average inhibition rate (%) on hERG channel
# Chain of hERG channel (Q12809 whole entry): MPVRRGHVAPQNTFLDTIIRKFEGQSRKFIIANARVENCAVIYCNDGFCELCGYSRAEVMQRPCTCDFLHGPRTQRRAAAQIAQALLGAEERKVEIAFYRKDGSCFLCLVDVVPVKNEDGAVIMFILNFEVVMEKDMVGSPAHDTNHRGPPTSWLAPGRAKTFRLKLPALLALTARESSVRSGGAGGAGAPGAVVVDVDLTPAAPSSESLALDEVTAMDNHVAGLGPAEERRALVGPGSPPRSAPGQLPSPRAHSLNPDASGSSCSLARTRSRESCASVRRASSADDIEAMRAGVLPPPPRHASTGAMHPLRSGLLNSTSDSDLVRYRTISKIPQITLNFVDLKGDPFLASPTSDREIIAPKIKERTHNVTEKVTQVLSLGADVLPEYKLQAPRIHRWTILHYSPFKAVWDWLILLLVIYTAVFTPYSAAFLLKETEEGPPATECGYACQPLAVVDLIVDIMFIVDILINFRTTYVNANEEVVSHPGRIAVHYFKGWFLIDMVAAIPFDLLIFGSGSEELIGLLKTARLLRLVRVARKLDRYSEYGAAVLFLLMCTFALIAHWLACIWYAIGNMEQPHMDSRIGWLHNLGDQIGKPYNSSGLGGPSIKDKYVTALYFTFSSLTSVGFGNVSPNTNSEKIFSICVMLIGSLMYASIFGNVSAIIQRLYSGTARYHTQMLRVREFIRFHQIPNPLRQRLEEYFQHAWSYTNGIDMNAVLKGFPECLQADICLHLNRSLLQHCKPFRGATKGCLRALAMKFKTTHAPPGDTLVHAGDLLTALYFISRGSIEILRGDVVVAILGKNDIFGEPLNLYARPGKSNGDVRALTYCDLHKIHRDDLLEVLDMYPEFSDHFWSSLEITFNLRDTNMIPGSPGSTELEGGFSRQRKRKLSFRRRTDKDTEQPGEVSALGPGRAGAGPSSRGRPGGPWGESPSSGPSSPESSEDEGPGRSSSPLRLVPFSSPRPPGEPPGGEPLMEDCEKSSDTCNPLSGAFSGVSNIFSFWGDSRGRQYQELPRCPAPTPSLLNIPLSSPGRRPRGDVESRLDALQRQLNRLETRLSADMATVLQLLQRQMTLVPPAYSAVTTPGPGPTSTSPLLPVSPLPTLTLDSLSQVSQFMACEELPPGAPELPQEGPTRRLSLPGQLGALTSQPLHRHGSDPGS
# From the text: In cardiomyocytes, inhibition of the delayed rectifier potassium current (IKr) channel protein encoded by the human Ether-a-go-go Related Gene (hERG) is the most important mechanism by which drugs lead to prolongation of the QT interval. hERG is characterized by a specific molecular structure, which allows it to be inhibited by different structures, leading to severe arrhythmias. Statistically, 25-40% of lead compounds show varying degrees of hERG-related toxicity. Therefore, early evaluation of the effects of compounds on hERG is crucial in the drug development process.
# The inhibition rate of compounds on hERG channels was examined by manual membrane clamp technique on HEK293 cell line which is stably expressing hERG ion channels.
# [1] = system: histamine-induced scratching; experiment: Antipruritic ability, histamine-induced scratching in mice; assay type: in vivo, C57BL/6J mice; details: for Inhibition Rate (%) of number of scratches: BIOS-B-12 10 mg/kg 4 h, BIOS-B-18 10 mg/kg 1 h, Dex 3 mg/kg 1 h before histamine 500 μg/50 μL s.c., observed 30 min, (Model-Compound)/Model×100%
# Procedure: The C57BL/6J male mice, with 6-8 weeks old, were randomly divided into model group (Model), BIOS-B-12 compound group (10 mg/kg), BIOS-B-18 compound group (10 mg/kg) and dexamethasone group (Dex, 3 mg/kg), with 7 animals in each group. The mice were injected subcutaneously with 500 μg/50 μL histamine at the back of the neck after the administration of dexamethasone for 1 h, BIOS-B-12 for 4 h, and BIOS-B-18 for 1 h, respectively, and immediately observed for 30 min. The number of scratched was recorded and the inhibition rate was calculated as (Model-Compound)/Model×100%.
# CCI model rats = experiment: Analgesic effect, chronic constriction injury (CCI) model, mechanical withdrawal threshold; assay type: in vivo, SD rats
# From the text: Exposing the sciatic nerve on male SD rats' (180-200 g) right hind leg, in the anterior segment where the sciatic nerve is about to bifurcate, use sterile chromic gut thread (No. 4, 0.15 mm in diameter) to ligate 4 loops loosely, with each loop 1-2 mm apart, and suture the muscle and skin to establish the chronic constriction injury (CCI) model. In the sham-operated group, only the sciatic nerve was exposed without ligation, and the muscle and skin were sutured. The mechanical withdrawal threshold was detected by electronic analgesia meter (IITC-2391) on the 7th day for 2 consecutive days.
# The CCI model rats with stabilized mechanical withdrawal thresholds were randomly divided into five groups, named model group (model), pregabalin group (Pre, 30 mg/kg), BIOS-B-12 compound group (3 mg/kg), BIOS-B-12 compound group (1 mg/kg), and BIOS-B-12 compound group (0.3 mg/kg), and were administered at 1 mL/100 g by gavage, and the same column of saline was gavaged in Sham an model group. The basic value was determined before drug administration, and the mechanical withdrawal thresholds were detected at 0.5 h, 1 h, 2 h, 4 h, 6 h, and 24 h after a single drug administration, and the p value was calculated by ANOVA with T-test.
# The CCI model rats with stabilized mechanical withdrawal thresholds were randomly divided into three groups, named model group (model), pregabalin group (Pre, 30 mg/kg), and BIOS-B-14 compound group (1 mg/kg), and were administered at 1 mL/100 g by gavage, and the same column of saline was gavaged in Sham and model group. The basic value was determined before drug administration, and the mechanical withdrawal thresholds were detected at 0.5 h, 1 h, 2 h, 4 h, and 6 h after a single drug administration, and the p value was calculated by ANOVA with T-test.
SMILES,inhibition at 0.005 µM (histamine H3 receptor),inhibition at 0.05 µM (histamine H3 receptor),inhibition at 10 µM (hERG channel),also measured
"CN1CCN(CC(=O)Nc2ccc(OC3CC(N4CCCCC4)C3)cc2)CC1 (stereo not shown) [BIOS-B-10, 2-(4-methylpiperazin-1-yl)-N-(4-(3-(piperidin-1-yl)cyclobutoxy)phenyl)acetamide]",99.5%,97.5%,-1.26%,–
"O=C(NCCN1CCC(F)(F)CC1)Nc1ccc(OC2CC(N3CCCCC3)C2)cc1 (stereo not shown) [BIOS-B-18, 1-(2-(4,4-difluoropiperidin-1-yl)ethyl)-3-(4-(3-(piperidin-1-yl)cyclobutoxy)phenyl)urea]",99.7%,99.9%,-0.65%,number of histamine-induced scratched in mice ([1]; 10 mg/kg): reduced; antipruritic effect compared with positive control dexamethasone ([1]; 10 mg/kg vs dexamethasone 3 mg/kg): more effective than the positive control; Inhibition Rate (%) of number of scratches [1]: 55.0%
"O=C(NCCN1CCOCC1)Nc1ccc(OC2CC(N3CCCCC3)C2)cc1 (stereo not shown) [BIOS-B-13, 1-(2-morpholinoethyl)-3-(4-(3-(piperidin-1-yl)cyclobutoxy)phenyl)urea]",99.6%,99.8%,-1.47%,–
"O=C(NCCN1CCC(O)CC1)Nc1ccc(OC2CC(N3CCCCC3)C2)cc1 (stereo not shown) [BIOS-B-19, 1-(2-(4-hydroxypiperidin-1-yl)ethyl)-3-(4-(3-(piperidin-1-yl)cyclobutoxy)phenyl)urea]",101%,101%,-0.09%,–
"CN1CCCN(CCNC(=O)Nc2ccc(OC3CC(N4CCCCC4)C3)cc2)CC1 (stereo not shown) [BIOS-B-17, 1-(2-(4-methyl-1,4-diazepan-1-yl)ethyl)-3-(4-(3-(piperidin-1-yl)cyclobutoxy)phenyl)urea]",101%,99.4%,1.52%,–
"O=C(CN1CCOCC1)Nc1ccc(OC2CCN(C3CCC3)CC2)cc1 [SUVN-G3031, Samelisant, reference compound]",57.8%,85.8%,–,–
"CN1CCN(CCNC(=O)Nc2ccc(OC3CC(N4CCCCC4)C3)cc2)CC1 (stereo not shown) [BIOS-B-22, 1-(2-(4-methylpiperazin-1-yl)ethyl)-3-(4-(3-(piperidin-1-yl)cyclobutoxy)phenyl)urea]",101%,99.5%,-2.43%,–
"O=C(CN1CCC(O)CC1)Nc1ccc(OC2CC(N3CCCCC3)C2)cc1 (stereo not shown) [BIOS-B-6, 2-(4-hydroxypiperidin-1-yl)-N-(4-(3-(piperidin-1-yl)cyclobutoxy)phenyl)acetamide]",103%,99.8%,–,–
"O=C(NCCN1CCSCC1)Nc1ccc(OC2CC(N3CCCCC3)C2)cc1 (stereo not shown) [BIOS-B-20, 1-(4-(3-(piperidin-1-yl)cyclobutoxy)phenyl)-3-(2-thiomorpholinoethyl)urea]",100%,101%,-0.66%,–
"O=C(CN1CCOCC1)Nc1ccc(OC2CC(N3CCCCC3)C2)cc1 (stereo not shown) [BIOS-B-1, 2-morpholino-N-(4-(3-(piperidin-1-yl)cyclobutoxy)phenyl)acetamide]",91.7%,100%,8.54%,–
"O=C(NCCN1CCCCC1)Nc1ccc(OC2CC(N3CCCCC3)C2)cc1 (stereo not shown) [BIOS-B-15, 1-(4-(3-(piperidin-1-yl)cyclobutoxy)phenyl)-3-(2-(piperidin-1-yl)ethyl)urea]",99%,100%,-0.12%,–
"CN1CCCN(CC(=O)Nc2ccc(OC3CC(N4CCCCC4)C3)cc2)CC1 (stereo not shown) [BIOS-B-4, 2-(4-methyl-1,4-diazepan-1-yl)-N-(4-(3-(piperidin-1-yl)cyclobutoxy)phenyl)acetamide]",101%,100%,–,–
"O=C(CN1CCCC(CCO)C1)Nc1ccc(OC2CC(N3CCCCC3)C2)cc1 (stereo not shown) [BIOS-B-8, 2-(3-(2-hydroxyethyl)piperidin-1-yl)-N-(4-(3-(piperidin-1-yl)cyclobutoxy)phenyl)acetamide]",101%,99.5%,4.82%,–
"O=C(CN1CCSCC1)Nc1ccc(OC2CC(N3CCCCC3)C2)cc1 (stereo not shown) [BIOS-B-7, N-(4-(3-(piperidin-1-yl)cyclobutoxy)phenyl)-2-thiomorpholinoacetamide]",88.3%,99.5%,–,–
"O=C(CN1CCCCC1)Nc1ccc(OC2CC(N3CCCCC3)C2)cc1 (stereo not shown) [BIOS-B-3, 2-(piperidin-1-yl)-N-(4-(3-(piperidin-1-yl)cyclobutoxy)phenyl)acetamide]",95.6%,99.4%,–,–
"O=C(CN1CCC(F)(F)CC1)Nc1ccc(OC2CC(N3CCCCC3)C2)cc1 (stereo not shown) [BIOS-B-5, 2-(4,4-difluoropiperidin-1-yl)-N-(4-(3-(piperidin-1-yl)cyclobutoxy)phenyl)acetamide]",98.9%,99.9%,–,–
"C[C@@H]1CCCN1CCNC(=O)Nc1ccc(OC2CC(N3CCCCC3)C2)cc1 (stereo partly drawn) [BIOS-B-14, (R)-1-(2-(2-methylpyrrolidin-1-yl)ethyl)-3-(4-(3-(piperidin-1-yl)cyclobutoxy)phenyl)urea]",100%,101%,0.17%,"mechanical withdrawal thresholds vs model group (CCI model rats; 1 mg/kg single dose by gavage, 0.5 h to 5 h after administration, P<0.05, FIG. 2): significantly increased; period of analgesia time compared with pregabalin (CCI model rats; BIOS-B-14 1 mg/kg vs pregabalin 30 mg/kg, FIG. 2 study): longer period of analgesia time than that of pregabalin"
"C[C@@H]1CCCN1CC(=O)Nc1ccc(OC2CC(N3CCCCC3)C2)cc1 (stereo partly drawn) [BIOS-B-2, (R)-2-(2-methylpyrrolidin-1-yl)-N-(4-(3-(piperidin-1-yl)cyclobutoxy)phenyl)acetamide]",100%,100%,–,–
"O=C(NCCN1CCCC(O)C1)Nc1ccc(OC2CC(N3CCCCC3)C2)cc1 (stereo not shown) [BIOS-B-23, 1-(2-(3-hydroxypiperidin-1-yl)ethyl)-3-(4-(3-(piperidin-1-yl)cyclobutoxy)phenyl)urea]",100%,100%,0.37%,–
"CC(C)C[C@H](CN)CC(=O)O [Pregabalin, pregabalin, reference compound]",–,–,–,"mechanical withdrawal thresholds vs model group (CCI model rats; 30 mg/kg single dose by gavage, only from 0.5 h to 1 h after administration, FIG. 2 study): significantly different; mechanical withdrawal thresholds vs model group (CCI model rats; 30 mg/kg single dose by gavage, only from 0.5 h to 2 h after administration, FIG. 1 study): significantly different"
"C[C@@H]1C[C@H]2[C@@H]3CCC4=CC(=O)C=C[C@]4(C)[C@@]3(F)[C@@H](O)C[C@]2(C)[C@@]1(O)C(=O)CO [Dex, dexamethasone, reference compound]",–,–,–,Inhibition Rate (%) of number of scratches [1]: 29.3%
"O=C(CN1CCNCC1)Nc1ccc(OC2CC(N3CCCCC3)C2)cc1 (stereo not shown) [BIOS-B-9, 2-(piperazin-1-yl)-N-(4-(3-(piperidin-1-yl)cyclobutoxy)phenyl)acetamide]",101%,99.6%,-1.03%,–
"O=C(CN1CCCC(O)C1)Nc1ccc(OC2CC(N3CCCCC3)C2)cc1 (stereo not shown) [BIOS-B-11, 2-(3-hydroxypiperidin-1-yl)-N-(4-(3-(piperidin-1-yl)cyclobutoxy)phenyl)acetamide]",97%,99.4%,2.96%,–
